25 molecules from ChEMBL document CHEMBL1146653, “Potent and selective, sulfamide-based human beta 3-adrenergic receptor agonists” (Bioorg Med Chem Lett, 2004) can be followed below.

For orientation: pEC50 means −log10 of the EC50, conventionally taken in molar units. Low values mean a large EC50, high ones a small EC50.

pEC50: −log10 of the molar value.

The target in assay [1] is Beta-2 adrenergic receptor (Homo sapiens) (UniProt P07550). Description: Intrinsic activity (IA) human Beta-2 adrenergic receptor (at 30 uM, represent by the percentage of the maximal response attained by isoproterenol). It is filed as functional.
For assay [2], the target named is T1, Beta-3 adrenergic receptor (Homo sapiens, UniProt P13945). Nature of the assay: Intrinsic activity (IA) at human Beta-3 adrenergic receptor (represented by the percentage of the maximal response attained by isoproterenol). It is filed as functional.
Target sequence in this assay (P13945 whole entry, looked up): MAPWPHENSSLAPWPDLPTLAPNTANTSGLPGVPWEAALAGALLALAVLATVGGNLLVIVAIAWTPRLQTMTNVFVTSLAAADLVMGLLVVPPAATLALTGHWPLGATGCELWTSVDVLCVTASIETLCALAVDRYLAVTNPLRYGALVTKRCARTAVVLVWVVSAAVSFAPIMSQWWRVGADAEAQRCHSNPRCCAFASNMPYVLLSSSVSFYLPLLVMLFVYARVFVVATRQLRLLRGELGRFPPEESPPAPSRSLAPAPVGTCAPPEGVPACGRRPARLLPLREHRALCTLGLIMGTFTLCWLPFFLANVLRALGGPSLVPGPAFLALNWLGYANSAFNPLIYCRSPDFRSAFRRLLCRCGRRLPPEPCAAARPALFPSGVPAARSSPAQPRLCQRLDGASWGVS
Assay [3] addresses Beta-1 adrenergic receptor (Homo sapiens) (UniProt P08588). Description: Intrinsic activity (IA) at human Beta-1 adrenergic receptor (at 30 uM, represented by the percentage of the maximal response attained by isoproterenol). It is filed as functional.
In assay [4] the target is T1, Beta-3 adrenergic receptor. Nature of the assay: Agonist activity (EC50) was assessed by measuring cAMP levels in CHO cells expressing cloned human Beta-3 adrenergic receptor. The format is functional, cell-based. On the technique in general: Cyclic AMP is a second messenger, typically raised through Gs and lowered through Gi signalling.
Target sequence in this assay (P13945 whole entry): as the sequence (P13945 whole entry, looked up) above
The target of assay [5] is Beta-1 adrenergic receptor (Homo sapiens) (UniProt P08588). Nature of the assay: Intrinsic activity (IA) of 30 uM compound at human Beta-1 adrenergic receptor represent the percentage of the maximal response attained by isoproterenol.
Beta-1 adrenergic receptor (Homo sapiens), sequence (P08588 whole entry, looked up): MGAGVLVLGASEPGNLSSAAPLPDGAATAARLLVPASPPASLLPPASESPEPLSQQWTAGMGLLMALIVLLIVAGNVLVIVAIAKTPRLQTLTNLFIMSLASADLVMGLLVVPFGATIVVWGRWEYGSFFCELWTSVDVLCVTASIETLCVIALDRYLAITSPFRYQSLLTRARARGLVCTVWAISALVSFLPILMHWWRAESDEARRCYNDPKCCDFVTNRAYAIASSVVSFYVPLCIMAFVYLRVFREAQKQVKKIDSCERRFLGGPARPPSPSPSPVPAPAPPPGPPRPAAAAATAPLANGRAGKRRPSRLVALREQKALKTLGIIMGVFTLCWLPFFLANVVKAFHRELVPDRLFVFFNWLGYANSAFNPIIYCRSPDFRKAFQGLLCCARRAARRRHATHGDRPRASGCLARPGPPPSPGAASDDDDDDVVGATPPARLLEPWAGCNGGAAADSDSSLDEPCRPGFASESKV

Beta-2 adrenergic receptor (Homo sapiens), sequence (P07550 whole entry, looked up): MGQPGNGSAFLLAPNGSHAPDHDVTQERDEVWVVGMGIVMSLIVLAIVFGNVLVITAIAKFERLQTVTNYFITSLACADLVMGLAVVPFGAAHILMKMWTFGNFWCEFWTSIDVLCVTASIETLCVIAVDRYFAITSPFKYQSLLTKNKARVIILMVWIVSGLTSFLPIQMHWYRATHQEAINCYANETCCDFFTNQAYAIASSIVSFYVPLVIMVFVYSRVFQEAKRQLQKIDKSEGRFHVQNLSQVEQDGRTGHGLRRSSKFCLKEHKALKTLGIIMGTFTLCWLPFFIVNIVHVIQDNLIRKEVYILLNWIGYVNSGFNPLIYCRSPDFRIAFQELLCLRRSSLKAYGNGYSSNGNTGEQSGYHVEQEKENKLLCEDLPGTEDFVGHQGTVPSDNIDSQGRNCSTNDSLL

Take `O=S(=O)(Nc1ccc(CCNC[C@H](O)c2cccnc2)cc1)NC1CCCCC1`: the IA in assay [1] was determined as 0; in assay [2], 71; in assay [3] it was 0. The molecule further had a pEC50 in assay [4] of 5.84.
For the molecule `COCCNS(=O)(=O)Nc1ccc(CC(C)(C)NC[C@H](O)c2cccnc2)cc1`, the IA in assay [1] was found to be 24; in assay [2], 103; in assay [3], 28. The molecule also showed a pEC50 in assay [4] of 6.78.
Regarding `C[C@@H]1C[C@H](C)CN(S(=O)(=O)Nc2ccc(CC(C)(C)NC[C@H](O)c3cccnc3)cc2)C1`, the IA came to 11 in assay [1], 89 in assay [2] and 7 in assay [3]. The molecule also had a pEC50 in assay [4] of 8.40.
On to `CC(C)(Cc1ccc(NS(=O)(=O)Nc2ccccc2)cc1)NC[C@H](O)c1cccnc1`, for which the IA amounted to 8 in assay [1], 107 in assay [2] and 29 in assay [3]. The same molecule had a pEC50 in assay [4] of 8.15.
In the case of `CN(C1CCCCC1)S(=O)(=O)Nc1ccc(CCNC[C@H](O)c2cccnc2)cc1`, the IA is 16 in assay [1], 67 in assay [2] and 15 in assay [3]. Moreover, in assay [4], the pEC50 is 6.74.
Regarding `O=S(=O)(Nc1ccc(CCNC[C@H](O)c2cccnc2)cc1)N1CCCCC1`, the values for the IA in assay [1], in assay [2] and in assay [3] were 6, 77 and 7, respectively. Besides, in assay [4], the pEC50 was 7.00.
Turning to `O=S(=O)(Nc1ccc(CCNC[C@H](O)c2cccc(Cl)c2)cc1)N1CCCCC1`, the IA in assay [1] is 5; in assay [2], 84; in assay [3], 4. This molecule had a pEC50 in assay [4] of 6.21.
`O=S(=O)(Nc1ccc(CCNC[C@H](O)c2cccnc2)cc1)c1ccc(-c2nc(-c3ccc(C(F)(F)F)cc3)cs2)cc1`: the IA in assay [1] turned out to be 1; in assay [2], 92; in assay [3] it was 1.
As to `CN(C)S(=O)(=O)Nc1ccc(CCNC[C@H](O)c2cccnc2)cc1`, the IA in assay [1] was found to be 11; in assay [2] it was 84; in assay [3], 6. This molecule also had a pEC50 in assay [4] of 6.58.
The corresponding values for `CN(C)S(=O)(=O)N(C)c1ccc(CCNC[C@H](O)c2cccc(Cl)c2)cc1` are 1, 105, 2 and 5.00.
The like results for `CC(C)(Cc1ccc(NS(=O)(=O)N2CCC(c3ccccc3)CC2)cc1)NC[C@H](O)c1cccnc1` were, in that order, 9, 106, 20 and 7.33.
The corresponding values for `CN(C)S(=O)(=O)Nc1ccc(CCNC[C@H](O)c2cccc(Cl)c2)cc1` are 6, 75, 5 and 6.52.
`C[C@@H]1CN(S(=O)(=O)Nc2ccc(CC(C)(C)NC[C@H](O)c3cccnc3)cc2)C[C@H](C)O1`: the figures for the IA in assay [1], in assay [2] and in assay [3] were 8, 85 and 10, respectively. For the same molecule, in assay [4], the pEC50 was 8.10.
`CN1CCN(S(=O)(=O)Nc2ccc(CC(C)(C)NC[C@H](O)c3cccnc3)cc2)CC1`: the IA in assay [1] stood at 4; in assay [2], 79; in assay [3], 7. In addition, the negative logarithm of the EC50 (pEC50) in assay [4] is 7.39.
The like results for `CC(C)(Cc1ccc(NS(=O)(=O)N2CCN(Cc3ccccc3)CC2)cc1)NC[C@H](O)c1cccnc1` were, in that order, 13, 105, 46 and 7.74.
For `CN(C)S(=O)(=O)Nc1ccc(OCCNC[C@H](O)c2cccnc2)cc1`, the IA worked out at 4 in assay [1], 96 in assay [2] and 3 in assay [3]. Moreover, the pEC50 in assay [4] was 6.03.
Turning to `CC1CCN(S(=O)(=O)Nc2ccc(CC(C)(C)NC[C@H](O)c3cccnc3)cc2)CC1`, the values for the IA in assay [1], in assay [2] and in assay [3] were 6, 91 and 12, respectively. Also, the pEC50 in assay [4] was 8.00.
The corresponding values for `CC1CCN(S(=O)(=O)Nc2ccc(OCCNC[C@H](O)c3cccnc3)cc2)CC1` are 7, 98, 5 and 5.87.
With `CN(C)S(=O)(=O)Nc1ccc(CC(C)(C)NC[C@H](O)c2cccnc2)cc1`, the figures for the IA in assay [1], in assay [2] and in assay [3] were 7, 98 and 10, respectively. In assay [4], the pEC50 is 7.42.
The corresponding values for `CC1CCN(S(=O)(=O)Nc2ccc(CCNC[C@H](O)c3cccnc3)cc2)CC1` are 8, 80, 6 and 7.44.
As for `O=S(=O)(Nc1ccc(CCNC[C@H](O)c2cccc(Cl)c2)cc1)NC1CCCCC1`, the IA in assay [1] came to 7; in assay [2], 63; in assay [5] it was 10. Moreover, the pEC50 in assay [4] is 6.33.
Take `O=S(=O)(Nc1ccc(CCNC[C@H](O)c2cccnc2)cc1)N1CCC(c2ccccc2)CC1`: the values for the IA in assay [1], in assay [2] and in assay [3] were 2, 100 and 2, respectively. The molecule also gave a pEC50 in assay [4] of 7.64.
For the molecule `C[C@@H]1C[C@H](C)CN(S(=O)(=O)Nc2ccc(CCNC[C@H](O)c3cccnc3)cc2)C1`, the IA turned out to be 17 in assay [1], 95 in assay [2] and 11 in assay [3]. In assay [4], this molecule had a pEC50 of 7.62.
`CN(C1CCCCC1)S(=O)(=O)Nc1ccc(CCNC[C@H](O)c2cccc(Cl)c2)cc1`: the IA stood at 5 in assay [1], 62 in assay [2] and 6 in assay [3]. The molecule further gave a pEC50 in assay [4] of 6.27.
As for `CC(C)(Cc1ccc(NS(=O)(=O)NC2CCCCC2)cc1)NC[C@H](O)c1cccnc1`, the figures for the IA in assay [1], in assay [2] and in assay [3] were 19, 110 and 17, respectively. The molecule further gave a pEC50 in assay [4] of 7.60.
